Experimental data reported in patent publication US5883243A, “Non-reducing saccharides, their preparations and uses” (Kabushiki Kaisha Hayashibara Seibutsu Kagaku Kenkyujo, priority 1997, dated 1999).

Assays:
bifid bacteria [1] = assay: Assimilation test by intestinal microorganism, overall judgement; format: cell-based; conditions: results of Tables 4 and 5
Description: (§1) To evaluate the growth rate of and to judge the assimilability by the microorganisms, the resultant broth was diluted 5-fold, and the turbidity of the dilution was measured at a wavelength of 750 nm in a 1-cm light-path cell. […] The criteria were in Table 3, and the results were in Tables 4 and 5: […]

[2] = test system: Lactobacillus plantarum IFO 3070; assay: Assimilation test by intestinal microorganism; format: cell-based; conditions: 0.5 w/v % saccharide in PYF broth, 37° C., 96 hours
[3] = test system: Lactobacillus fermentum IFO 3959; assay: Assimilation test by intestinal microorganism; format: cell-based; conditions: 0.5 w/v % saccharide in PYF broth, 37° C., 96 hours
[4] = test system: Bifidobacterium bifidum JCM 1255; assay: Assimilation test by intestinal microorganism; format: cell-based; conditions: 0.5 w/v % saccharide in PYF broth, 37° C., 96 hours
[5] = test system: Escherichia coli IFO 3301; assay: Assimilation test by intestinal microorganism; format: cell-based; conditions: 0.5 w/v % saccharide in PYF broth, 37° C., 96 hours
[6] = test system: Bifidobacterium infantis JCM 1222; assay: Assimilation test by intestinal microorganism; format: cell-based; conditions: 0.5 w/v % saccharide in PYF broth, 37° C., 96 hours
[7] = test system: crude glucosyltransferase specimen derived from Streptococcus sobrinus strain (ATCC 27351); assay: Inhibition of insoluble glucan formation by glucosyltransferase from dental caries-inducing microorganism; format: biochemical; conditions: sucrose plus test saccharide (one ml of one w/v % each), pH 6.8, 37° C., 16 hours; for Yield of non-adsorbed glucans: sucrose alone 923; for Yield of adsorbed glucans: sucrose alone 1,160
Description: To a mixture solution consisting of one ml of one w/v % sucrose solution, one ml of one w/v % of a test saccharide solution, and 1.5 ml of 0.1M phosphate buffer (pH 6.8) was added 0.5 ml solution containing a crude glucosyltransferase specimen in a total protein content of 10 mg, and the mixture solution was placed in a small test tube which was then fixed and slanted to give a grade 30 degrees and allowed to react at 37° C. for 16 hours. The reaction mixture was transferred gently to another test tube and mixed with a solution obtained by washing carefully with 4 ml water the remaining substances adhered to the inner walls of the small test tube, and the mixture solution was centrifuged to obtain a precipitate as a non-adsorbed glucan. The amounts of the adsorbed- and non-adsorbed glucans thus obtained were respectively quantified by the anthrone-sulfuric acid method, and the total amount of them was regarded as the amount of the formed insoluble glucans. As a control system, a reaction system using water in place of the test saccharide solution, i.e. a reaction system using sucrose as a saccharide, was provided.

[8] = test system: Bacteroides uniformis JCM 5828; assay: Assimilation test by intestinal microorganism; format: cell-based; conditions: 0.5 w/v % saccharide in PYF broth, 37° C., 96 hours
[9] = test system: Bifidobacterium adolescentis JCM 1275; assay: Assimilation test by intestinal microorganism; format: cell-based; conditions: 0.5 w/v % saccharide in PYF broth, 37° C., 96 hours
[10] = test system: Clostridium butyricum JCM 1391; format: cell-based; conditions: 0.5 w/v % saccharide in PYF broth, 37° C., 96 hours
[11] = test system: Bacteroides vulgatus JCM 5826; assay: Assimilation test by intestinal microorganism; format: cell-based; conditions: 0.5 w/v % saccharide in PYF broth, 37° C., 96 hours
[12] = test system: Streptococcus sobrinus ATCC 27351; assay: Acid formation by dental caries-inducing microorganisms; conditions: living wet cells, 0.02M saccharide, Stephen buffer pH 7.0, 37° C.; for pH at each fermentation time (min): 0: 0 min; for pH at each fermentation time (min): 5: 5 min; for pH at each fermentation time (min): 15: 15 min; for pH at each fermentation time (min): 30: 30 min; for pH at each fermentation time (min): 60: 60 min; for pH at each fermentation time (min): 90: 90 min
[13] = test system: Clostridium ramosum JCM 1298; assay: Assimilation test by intestinal microorganism; format: cell-based; conditions: 0.5 w/v % saccharide in PYF broth, 37° C., 96 hours
[14] = test system: Bifidobacterium animalis JCM 1190; assay: Assimilation test by intestinal microorganism; format: cell-based; conditions: 0.5 w/v % saccharide in PYF broth, 37° C., 96 hours
[15] = Maillard reaction (coloration with glycine); format: physicochemical; conditions: 10 w/v % saccharide, one w/v % glycine, 50 mM phosphate buffer pH 7.0, 100° C., 90 min; 1-cm cell
[16] = test system: Clostridium perfringens JCM 3816; format: cell-based; conditions: 0.5 w/v % saccharide in PYF broth, 37° C., 96 hours
[17] = test system: Peptostreptococcus prevotii ATCC 9321; assay: Assimilation test by intestinal microorganism; format: cell-based; conditions: 0.5 w/v % saccharide in PYF broth, 37° C., 96 hours
[18] = test system: Enzyme from small intestinal mucus membrane; conditions: enzymes of small intestinal mucus membranes
[19] = test system: Eubacterium aerofaciens ATCC 25986; assay: Assimilation test by intestinal microorganism; format: cell-based; conditions: 0.5 w/v % saccharide in PYF broth, 37° C., 96 hours
[20] = test system: Bifidobacterium longum JCM 1217; assay: Assimilation test by intestinal microorganism; format: cell-based; conditions: 0.5 w/v % saccharide in PYF broth, 37° C., 96 hours
[21] = test system: Streptococcus faecalis IAM 10065; assay: Assimilation test by intestinal microorganism; format: cell-based; conditions: 0.5 w/v % saccharide in PYF broth, 37° C., 96 hours
bifid bacteria [22] = assay: Influence on growth-promoting activity for bifid bacteria in vivo (feces of volunteers); design: species or system human; conditions: after vs before 14-day administration; span over both saccharides
Description: The weight of daily feces before and after the 14-day administration tests, the relative change of feces' weight, the feces' pH, the total number of microorganisms per g of feces, the percentage of the number of bifid bacteria to the total number of microorganisms in feces, and the relative change of the total number of bifid bacteria were measured, followed by calculating the mean value of the five volunteers. Among these measurements, the total number of microorganisms was determined in accordance with the method as reported in "A Color Atlas of Anaerobic Bacteria", pp.53-65 (1984), edited by Tomotari MITSUOKA, published by Kabushiki Kaisha Sobunsha, Tokyo, Japan (1984): The colonies grown in 13 different types of media excluding M10 medium were judged for which genus they belong to and counted for cells. The cell count obtained with a specific medium, which gave the highest number of microorganisms for each genus, was determined to be a real cell count. The total cell count of microorganisms of all the genera was determined to be the total number of microorganisms in each volunteer's feces.

[23] = test system: Bacteroides distasonis JCM 5825; assay: Assimilation test by intestinal microorganism; format: cell-based; conditions: 0.5 w/v % saccharide in PYF broth, 37° C., 96 hours
[24] = test system: Bifidobacterium breve JCM 1192; assay: Assimilation test by intestinal microorganism; format: cell-based; conditions: 0.5 w/v % saccharide in PYF broth, 37° C., 96 hours
[25] = test system: Clostridium sporogenes JCM 1416; assay: Assimilation test by intestinal microorganism; format: cell-based; conditions: 0.5 w/v % saccharide in PYF broth, 37° C., 96 hours, free of sugar: ±
Description: as §1

Acute toxicity test = format: in vivo; conditions: oral, mice, highest possible dose
From the text: As a result, no mouse died even when administered with a highest possible dose. This means that the LD50 is 50 g/kg mouse or more and concludes that it is extremely low in toxicity.

SMILES | Selective assimilability by bifid bacteria, in words (bifid bacteria [1]) | Judgement of assimilation (turbidity at a wavelength of 750 nm × 5) [2] | Judgement of assimilation (turbidity at a wavelength of 750 nm × 5) [3] | Judgement of assimilation (turbidity at a wavelength of 750 nm × 5) [4] | Judgement of assimilation (turbidity at a wavelength of 750 nm × 5) [5] | Judgement of assimilation (turbidity at a wavelength of 750 nm × 5) [6] | Yield of non-adsorbed glucans [7] | Yield of adsorbed glucans [7] | Judgement of assimilation (turbidity at a wavelength of 750 nm × 5) [8] | Judgement of assimilation (turbidity at a wavelength of 750 nm × 5) [9] | Judgement of assimilation (turbidity at a wavelength of 750 nm × 5) [11] | Judgement of assimilation (turbidity at a wavelength of 750 nm × 5) [13] | Judgement of assimilation (turbidity at a wavelength of 750 nm × 5) [14] | Judgement of assimilation (turbidity at a wavelength of 750 nm × 5) [16] | Judgement of assimilation (turbidity at a wavelength of 750 nm × 5) [17] | Judgement of assimilation (turbidity at a wavelength of 750 nm × 5) [19] | Judgement of assimilation (turbidity at a wavelength of 750 nm × 5) [20] | Judgement of assimilation (turbidity at a wavelength of 750 nm × 5) [21] | Judgement of assimilation (turbidity at a wavelength of 750 nm × 5) [23] | Judgement of assimilation (turbidity at a wavelength of 750 nm × 5) [24] | other results
OC[C@H]1O[C@H](OC[C@H]2O[C@H](O[C@H]3O[C@H](CO[C@H]4O[C@H](CO)[C@@H](O)[C@H](O)[C@H]4O)[C@@H](O)[C@H](O)[C@H]3O)[C@H](O)[C@@H](O)[C@@H]2O)[C@H](O)[C@@H](O)[C@@H]1O [α-Isomaltosyl α-isomaltoside, O-α-D-glucopyranosyl-(1→6)-α-D-glucopyranosyl O-α-D-glucopyranosyl-(1→6)-α-D-glucopyranoside] | high in the selective assimilability by bifid bacteria | - (Less than 0.1) | - (Less than 0.1) | ++ (0.2 or higher but less than 0.3) | - (Less than 0.1) | +++ (0.3 or higher) | 298 µg/mL | 72 µg/mL | - (Less than 0.1) | +++ (0.3 or higher) | - (Less than 0.1) | - (Less than 0.1) | +++ (0.3 or higher) | - (Less than 0.1) | ± (0.1 or higher but less than 0.15) | - (Less than 0.1) | +++ (0.3 or higher) | - (Less than 0.1) | - (Less than 0.1) | +++ (0.3 or higher) | Judgement of assimilation (turbidity at a wavelength of 750 nm × 5) [10]: +++ (0.3 or higher); pH at each fermentation time (min): 0 [12]: 7.0; pH at each fermentation time (min): 5 [12]: 7.0; pH at each fermentation time (min): 15 [12]: 6.9; pH at each fermentation time (min): 30 [12]: 6.9; pH at each fermentation time (min): 60 [12]: 6.9; pH at each fermentation time (min): 90 [12]: 6.9; Coloration degree (at a wavelength of 480 nm) [15]: 0.016; Digestibility, judgement in words [18]: relatively-low in digestibility; Increase of the total cell count of bifid bacteria (bifid bacteria [22]): 2.3- to 2.5 fold
O=C[C@H](O)[C@@H](O)[C@H](O)[C@H](O)CO [A, glucose, reference compound] |  | ++ (0.2 or higher but less than 0.3) | ++ (0.2 or higher but less than 0.3) | ++ (0.2 or higher but less than 0.3) | + (0.15 or higher but less than 0.2) | ++ (0.2 or higher but less than 0.3) |  |  | ++ (0.2 or higher but less than 0.3) | +++ (0.3 or higher) | + (0.15 or higher but less than 0.2) | + (0.15 or higher but less than 0.2) | +++ (0.3 or higher) | +++ (0.3 or higher) | + (0.15 or higher but less than 0.2) | +++ (0.3 or higher) | +++ (0.3 or higher) | ++ (0.2 or higher but less than 0.3) | ++ (0.2 or higher but less than 0.3) | ++ (0.2 or higher but less than 0.3) | Judgement of assimilation (turbidity at a wavelength of 750 nm × 5) [10]: +++ (0.3 or higher); Judgement of assimilation (turbidity at a wavelength of 750 nm × 5) [25]: + (0.15 or higher but less than 0.2)
OC[C@H]1O[C@H](OC[C@H]2O[C@H](O[C@H]3O[C@H](CO)[C@@H](O)[C@H](O)[C@H]3O)[C@H](O)[C@@H](O)[C@@H]2O)[C@H](O)[C@@H](O)[C@@H]1O [O-α-D-glucopyranosyl-(1→6)-α-D-glucopyranosyl α-D-glucopyranoside] | high in the selective assimilability by bifid bacteria | - (Less than 0.1) | - (Less than 0.1) | ++ (0.2 or higher but less than 0.3) | - (Less than 0.1) | +++ (0.3 or higher) | 118 µg/mL | 30 µg/mL | - (Less than 0.1) | +++ (0.3 or higher) | - (Less than 0.1) | - (Less than 0.1) | +++ (0.3 or higher) | + (0.15 or higher but less than 0.2) | ± (0.1 or higher but less than 0.15) | - (Less than 0.1) | +++ (0.3 or higher) | - (Less than 0.1) | - (Less than 0.1) | +++ (0.3 or higher) | pH at each fermentation time (min): 0 [12]: 7.0; pH at each fermentation time (min): 5 [12]: 7.0; pH at each fermentation time (min): 15 [12]: 6.9; pH at each fermentation time (min): 30 [12]: 6.9; pH at each fermentation time (min): 60 [12]: 6.9; pH at each fermentation time (min): 90 [12]: 6.9; Coloration degree (at a wavelength of 480 nm) [15]: 0.021; Digestibility, judgement in words [18]: slightly hydrolyzed; Increase of the total cell count of bifid bacteria (bifid bacteria [22]): 2.3- to 2.5 fold; Mortality in acute toxicity test, in words (Acute toxicity test): no mouse died
